Measured values from EPA's ToxValDB 9.5 (doi:10.2903/j.efsa.2014.3812).
≈ marks a conversion by molar mass, not a printed value.

Columns and labels:
[1] = system: Apis mellifera; conditions: acute, mortality
[2] = system: Colinus virginianus
[3] = system: Daphnia magna; conditions: chronic/long-term; duration: 21 days; reproduction
[4] = system: Folsomia candida; conditions: chronic/long-term
[5] = system: Hypoaspis aculeifer; conditions: chronic/long-term
[6] = system: Pimephales promelas
[7] = system: Rattus norvegicus
[8] = system: Tagia sp.
[9] = system: Typhlodromus pyri; assay: LR50; higher = less toxic; conditions: not reported; mortality

O=C(O)COc1ccc(Cl)cc1Cl [2,4-Dichlorophenoxyacetic acid]
LD50 ([1]; dermal): > 100 µg/piece | LD50 ([1]; oral, unspecified): 94 µg/piece | LD50 ([2]; acute, oral): 500 mg/kg-day | NOAEL ([2]; reproduction developmental): 100 mg/kg-day | NOEC [3]: 38.4 mg/L | NOEC [4]: 1.25 mg/kg | NOEC [5]: 5 mg/kg | LC50 ([6]; acute, duration: 96 hours, mortality): 100 µg/mL (≈ 452 µM) | NOEC ([6]; chronic/long-term, duration: 32 days, growth): 63.4 mg/L | LD50 ([7]; acute): 486 mg/kg-day | NOAEL ([7]; acute, clinical signs): 75 mg/kg-day | NOAEL ([7]; chronic): 20.6 mg/kg-day | NOAEL ([7]; chronic, duration: 2 years, organ weight): 5 mg/kg-day | NOAEL ([7]; subchronic, duration: 90 days, oral, histopathology: nonneoplastic): 15 mg/kg-day | LC50 ([8]; acute, duration: 14 days, mortality): 350 mg/kg | NOEC ([8]; chronic/long-term, duration: 8 weeks): 62.5 mg/kg | LR50 [9]: > 3000 g/ha
